In US20220187282A1, “CARDIOMYOCYTE PROLIFERATION” (The Council of the Queensland Institute of Medical Research, priority 2019, published 2022):
Read-outs that look alike come from different tables or passages of the source.

Assays:
Assay type in all cases: biochemical
kinases [1] = biological target: kinases (Homo sapiens, UniProt Q8TDC3); conditions: BRSK1 (SAD1) FRET-Z-Lyte SP; Test Conc(μM):ATP Conc(μM) 1:25
kinases [2] = biological target: kinases (Homo sapiens, UniProt P10721); conditions: KIT *Mn* FRET-Z-Lyte SP
Chain of kinases (Homo sapiens, UniProt P10721) (P10721 26-976): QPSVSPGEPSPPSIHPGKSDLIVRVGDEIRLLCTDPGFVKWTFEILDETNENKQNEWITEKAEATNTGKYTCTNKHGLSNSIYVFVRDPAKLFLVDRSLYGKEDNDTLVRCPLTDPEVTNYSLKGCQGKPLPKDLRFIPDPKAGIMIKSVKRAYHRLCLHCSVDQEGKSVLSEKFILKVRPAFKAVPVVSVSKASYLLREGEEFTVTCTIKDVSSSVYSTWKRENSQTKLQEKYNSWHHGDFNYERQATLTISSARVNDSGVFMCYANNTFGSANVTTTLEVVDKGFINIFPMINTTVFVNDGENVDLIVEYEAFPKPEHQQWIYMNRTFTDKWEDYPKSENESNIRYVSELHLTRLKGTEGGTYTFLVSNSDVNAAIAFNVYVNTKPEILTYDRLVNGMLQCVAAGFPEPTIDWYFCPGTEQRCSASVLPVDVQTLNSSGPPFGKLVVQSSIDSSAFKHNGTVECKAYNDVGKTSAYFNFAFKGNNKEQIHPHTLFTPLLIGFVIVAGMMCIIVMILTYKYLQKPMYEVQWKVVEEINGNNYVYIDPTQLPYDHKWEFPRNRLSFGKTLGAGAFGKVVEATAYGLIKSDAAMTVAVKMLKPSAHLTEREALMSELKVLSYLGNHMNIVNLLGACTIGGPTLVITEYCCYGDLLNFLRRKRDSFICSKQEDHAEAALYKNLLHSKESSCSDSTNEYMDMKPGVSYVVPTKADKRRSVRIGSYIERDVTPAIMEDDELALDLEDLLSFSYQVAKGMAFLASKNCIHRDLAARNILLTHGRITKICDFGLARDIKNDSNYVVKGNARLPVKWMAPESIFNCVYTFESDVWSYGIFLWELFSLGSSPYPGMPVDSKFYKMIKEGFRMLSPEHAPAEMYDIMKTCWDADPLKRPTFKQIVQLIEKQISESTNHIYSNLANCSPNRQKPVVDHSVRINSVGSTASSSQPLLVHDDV

kinases [3] = biological target: kinases (Homo sapiens, UniProt P15056)
Chain of kinases (Homo sapiens, UniProt P15056) (P15056 whole entry): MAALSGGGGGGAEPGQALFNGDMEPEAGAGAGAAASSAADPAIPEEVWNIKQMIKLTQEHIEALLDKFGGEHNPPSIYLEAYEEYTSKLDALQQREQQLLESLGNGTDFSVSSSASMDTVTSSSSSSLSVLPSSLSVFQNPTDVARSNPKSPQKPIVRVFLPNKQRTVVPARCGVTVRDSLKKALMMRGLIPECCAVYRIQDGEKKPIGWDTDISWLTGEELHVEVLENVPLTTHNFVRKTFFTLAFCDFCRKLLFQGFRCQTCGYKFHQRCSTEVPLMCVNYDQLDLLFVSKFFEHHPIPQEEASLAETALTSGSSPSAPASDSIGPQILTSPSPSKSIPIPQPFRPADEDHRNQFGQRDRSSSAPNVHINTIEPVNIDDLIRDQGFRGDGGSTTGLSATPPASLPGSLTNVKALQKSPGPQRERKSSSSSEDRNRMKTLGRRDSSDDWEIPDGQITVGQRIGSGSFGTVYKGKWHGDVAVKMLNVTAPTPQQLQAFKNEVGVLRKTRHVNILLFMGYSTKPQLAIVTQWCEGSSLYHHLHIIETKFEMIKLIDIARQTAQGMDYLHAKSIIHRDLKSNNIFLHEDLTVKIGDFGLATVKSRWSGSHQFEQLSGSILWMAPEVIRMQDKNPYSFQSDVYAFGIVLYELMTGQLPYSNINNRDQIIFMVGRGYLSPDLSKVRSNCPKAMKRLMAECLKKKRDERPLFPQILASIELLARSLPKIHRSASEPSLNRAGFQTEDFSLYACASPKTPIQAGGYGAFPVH

kinases [4] = biological target: kinases (Homo sapiens, UniProt P57059); conditions: SIK1 FRET-Lantha SP; Test Conc(μM) 1
kinases [5] = biological target: kinases (Homo sapiens, UniProt Q9BTU6); conditions: PI4K2A *Mn* FRET-Adapta SP; Test Conc(μM):ATP Conc(μM) 1:10
kinases [6] = biological target: kinases (Homo sapiens, UniProt Q9H3Y6); conditions: SRMS (Srm) FRET-Z-Lyte SP; Test Conc(μM):ATP Conc(μM) 1:150
kinases [7] = biological target: kinases (Homo sapiens, UniProt Q8TD19); conditions: NEK9 *Mn* FRET-Z-Lyte SP; Test Conc(μM):ATP Conc(μM) 1:100
kinases [8] = biological target: kinases (Homo sapiens, UniProt P51813); conditions: BMX FRET-Z-Lyte SP; Test Conc(μM):ATP Conc(μM) 1:100
kinases [9] = biological target: kinases (Homo sapiens, UniProt Q04759); conditions: PRKCQ (PKC theta) Z-Lyte SP; Test Conc(μM):ATP Conc(μM) 1:100
kinases [10] = biological target: kinases (Homo sapiens, UniProt P53667); conditions: LIMK1 FRET-Lantha SP; Test Conc(μM) 1
kinases [11] = biological target: kinases (Homo sapiens, UniProt Q04771); conditions: ACVR1 (ALK2) FRET-Lantha SP; Test Conc(μM) 1
Chain of kinases (Homo sapiens, UniProt Q04771) (Q04771 21-509): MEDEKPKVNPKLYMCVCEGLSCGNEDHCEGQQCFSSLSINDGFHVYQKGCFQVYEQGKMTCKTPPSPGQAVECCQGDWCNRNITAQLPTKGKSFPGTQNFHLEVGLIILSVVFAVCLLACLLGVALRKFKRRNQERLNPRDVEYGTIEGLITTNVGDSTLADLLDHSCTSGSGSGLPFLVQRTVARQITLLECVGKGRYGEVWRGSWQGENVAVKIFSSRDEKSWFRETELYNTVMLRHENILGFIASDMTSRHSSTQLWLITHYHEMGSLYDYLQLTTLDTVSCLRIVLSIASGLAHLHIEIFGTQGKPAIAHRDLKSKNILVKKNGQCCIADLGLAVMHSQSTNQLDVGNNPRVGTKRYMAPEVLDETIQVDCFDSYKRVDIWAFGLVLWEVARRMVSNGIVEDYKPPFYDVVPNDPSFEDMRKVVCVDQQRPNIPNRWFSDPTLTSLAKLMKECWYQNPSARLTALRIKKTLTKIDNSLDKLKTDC

kinases [12] = biological target: kinases (Homo sapiens, UniProt Q8N4C8); conditions: MINK1 FRET-Z-Lyte SP; Test Conc(μM):ATP Conc(μM) 1:25
kinases [13] = biological target: kinases (Homo sapiens, UniProt Q8NE63); conditions: HIPK4 FRET-Z-Lyte SP; Test Conc(μM):ATP Conc(μM) 1:50
Chain of kinases (Homo sapiens, UniProt Q8NE63) (Q8NE63 whole entry): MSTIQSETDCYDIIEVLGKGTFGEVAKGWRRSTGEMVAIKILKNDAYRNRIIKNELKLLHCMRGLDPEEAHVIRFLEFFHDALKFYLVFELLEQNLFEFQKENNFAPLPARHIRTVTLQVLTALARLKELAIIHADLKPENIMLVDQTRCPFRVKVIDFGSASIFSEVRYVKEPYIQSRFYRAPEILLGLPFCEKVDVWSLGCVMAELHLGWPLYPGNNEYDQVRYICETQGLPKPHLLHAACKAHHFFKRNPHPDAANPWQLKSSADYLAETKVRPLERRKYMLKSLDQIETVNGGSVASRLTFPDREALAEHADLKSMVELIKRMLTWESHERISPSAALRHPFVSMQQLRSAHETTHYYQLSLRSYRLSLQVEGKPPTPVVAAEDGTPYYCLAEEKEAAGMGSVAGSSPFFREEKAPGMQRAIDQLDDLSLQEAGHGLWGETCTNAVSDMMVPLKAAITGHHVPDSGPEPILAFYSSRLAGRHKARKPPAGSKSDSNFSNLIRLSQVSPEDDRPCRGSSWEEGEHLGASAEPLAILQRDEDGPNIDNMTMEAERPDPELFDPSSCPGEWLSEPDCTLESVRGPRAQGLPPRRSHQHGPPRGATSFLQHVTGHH

kinases [14] = biological target: kinases (Homo sapiens, UniProt Q16539)
Chain of kinases (Homo sapiens, UniProt Q16539) (Q16539 whole entry): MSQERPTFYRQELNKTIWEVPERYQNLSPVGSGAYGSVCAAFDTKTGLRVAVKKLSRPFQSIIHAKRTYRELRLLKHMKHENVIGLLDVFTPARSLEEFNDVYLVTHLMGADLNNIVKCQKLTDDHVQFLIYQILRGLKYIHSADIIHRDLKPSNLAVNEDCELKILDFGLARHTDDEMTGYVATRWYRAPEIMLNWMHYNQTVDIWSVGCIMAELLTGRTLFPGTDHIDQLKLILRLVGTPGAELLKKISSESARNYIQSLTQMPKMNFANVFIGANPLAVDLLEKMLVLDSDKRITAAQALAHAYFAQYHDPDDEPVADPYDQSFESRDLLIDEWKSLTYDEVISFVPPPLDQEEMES

kinases [15] = biological target: kinases (Homo sapiens, UniProt Q06418); conditions: TYRO3 (RSE) FRET-Z-Lyte SP; Test Conc(μM):ATP Conc(μM) 1:25
kinases [16] = biological target: kinases (Homo sapiens, UniProt Q05655); conditions: PRKCD (PKC delta) Z-Lyte SP; Test Conc(μM):ATP Conc(μM) 1:25
Chain of kinases (Homo sapiens, UniProt Q05655) (Q05655 whole entry): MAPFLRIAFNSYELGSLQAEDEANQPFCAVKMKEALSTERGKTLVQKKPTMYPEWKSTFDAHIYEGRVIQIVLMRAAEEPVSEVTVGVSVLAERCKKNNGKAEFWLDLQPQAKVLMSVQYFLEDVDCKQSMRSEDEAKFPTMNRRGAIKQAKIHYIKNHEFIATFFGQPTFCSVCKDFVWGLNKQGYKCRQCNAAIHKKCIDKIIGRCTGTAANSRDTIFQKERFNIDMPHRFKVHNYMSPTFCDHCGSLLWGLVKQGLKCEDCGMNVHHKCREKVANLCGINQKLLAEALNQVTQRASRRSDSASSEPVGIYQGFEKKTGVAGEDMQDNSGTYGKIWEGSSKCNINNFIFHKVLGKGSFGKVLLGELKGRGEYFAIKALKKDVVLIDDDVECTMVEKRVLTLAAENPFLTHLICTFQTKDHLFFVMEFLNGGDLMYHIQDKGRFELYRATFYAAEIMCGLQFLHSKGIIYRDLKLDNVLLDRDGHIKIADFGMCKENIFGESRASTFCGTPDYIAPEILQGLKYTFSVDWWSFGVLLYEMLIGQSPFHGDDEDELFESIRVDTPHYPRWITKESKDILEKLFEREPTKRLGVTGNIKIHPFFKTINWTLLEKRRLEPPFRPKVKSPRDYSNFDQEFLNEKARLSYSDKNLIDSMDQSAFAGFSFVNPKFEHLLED

kinases [17] = biological target: kinases (Homo sapiens, UniProt Q14164); conditions: IKBKE (IKK epsilon) Z-Lyte SP; Test Conc(μM):ATP Conc(μM) 1:10
kinases [18] = biological target: kinases (Homo sapiens, UniProt Q16288); conditions: NTRK3 (TRKC) FRET-Z-Lyte SP; Test Conc(μM):ATP Conc(μM) 1:50
kinases [19] = biological target: kinases (Homo sapiens, UniProt P54762); conditions: EPHB1 FRET-Z-Lyte SP; Test Conc(μM):ATP Conc(μM) 1:50
kinases [20] = biological target: kinases (Homo sapiens, UniProt P36894); conditions: BMPR1A (ALK3) FRET-Lantha SP; Test Conc(μM) 1
kinases [21] = biological target: kinases (Homo sapiens, UniProt Q86Z02); conditions: HIPK1 (Myak) FRET-Z-Lyte SP; Test Conc(μM):ATP Conc(μM) 1:5
Chain of kinases (Homo sapiens, UniProt Q86Z02) (Q86Z02 whole entry): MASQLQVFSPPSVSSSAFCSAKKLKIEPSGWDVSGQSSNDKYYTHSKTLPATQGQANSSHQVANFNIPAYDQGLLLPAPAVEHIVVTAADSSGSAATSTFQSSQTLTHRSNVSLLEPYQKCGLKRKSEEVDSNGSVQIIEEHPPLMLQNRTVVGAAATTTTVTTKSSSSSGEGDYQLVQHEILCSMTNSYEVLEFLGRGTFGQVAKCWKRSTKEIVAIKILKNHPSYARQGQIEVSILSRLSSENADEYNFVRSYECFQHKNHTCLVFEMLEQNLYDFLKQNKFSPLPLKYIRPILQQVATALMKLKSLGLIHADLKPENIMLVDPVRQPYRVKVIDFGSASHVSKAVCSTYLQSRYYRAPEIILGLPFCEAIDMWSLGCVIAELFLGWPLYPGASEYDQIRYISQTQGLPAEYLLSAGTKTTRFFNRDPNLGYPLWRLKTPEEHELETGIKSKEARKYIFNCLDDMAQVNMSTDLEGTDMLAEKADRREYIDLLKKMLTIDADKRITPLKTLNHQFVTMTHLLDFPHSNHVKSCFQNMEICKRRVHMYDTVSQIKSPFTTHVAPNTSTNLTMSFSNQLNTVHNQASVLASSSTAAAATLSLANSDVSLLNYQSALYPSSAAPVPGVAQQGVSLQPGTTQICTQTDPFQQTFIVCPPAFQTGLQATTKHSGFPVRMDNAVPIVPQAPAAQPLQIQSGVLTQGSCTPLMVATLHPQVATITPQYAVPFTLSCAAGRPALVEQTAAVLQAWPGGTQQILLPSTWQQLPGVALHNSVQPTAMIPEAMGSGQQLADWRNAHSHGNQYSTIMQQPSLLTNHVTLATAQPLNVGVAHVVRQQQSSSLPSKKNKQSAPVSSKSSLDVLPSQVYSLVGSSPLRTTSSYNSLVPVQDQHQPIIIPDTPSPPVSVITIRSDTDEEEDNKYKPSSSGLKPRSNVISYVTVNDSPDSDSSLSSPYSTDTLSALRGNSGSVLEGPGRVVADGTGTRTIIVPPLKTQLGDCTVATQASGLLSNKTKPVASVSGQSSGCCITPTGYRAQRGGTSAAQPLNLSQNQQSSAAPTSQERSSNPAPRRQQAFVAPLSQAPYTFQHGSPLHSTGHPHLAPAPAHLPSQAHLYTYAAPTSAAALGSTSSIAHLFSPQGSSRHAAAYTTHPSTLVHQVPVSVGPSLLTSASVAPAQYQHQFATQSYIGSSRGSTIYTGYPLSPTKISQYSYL

kinases [22] = biological target: kinases (Homo sapiens, UniProt P22607); conditions: FGFR3 *Mn* FRET-Z-Lyte SP; Test Conc(μM):ATP Conc(μM) 1:75
kinases [23] = biological target: kinases (Homo sapiens, UniProt P29317); conditions: EPHA2 FRET-Z-Lyte SP; Test Conc(μM):ATP Conc(μM) 1:75
kinases [24] = biological target: kinases (Homo sapiens, UniProt Q6DT37); conditions: CDC42 BPG FRET-Z-Lyte SP; Test Conc(μM):ATP Conc(μM) 1:5
kinases [25] = biological target: kinases (Homo sapiens, UniProt P42680); conditions: TEC FRET-Lantha SP; Test Conc(μM) 1
kinases [26] = biological target: kinases (Homo sapiens, UniProt Q9Y2H1); conditions: STK38L (NDR2) FRET-Lantha SP; Test Conc(μM) 1
kinases [27] = biological target: kinases (Homo sapiens, UniProt P14616); conditions: INSRR (IRR) *Mn* Z-Lyte SP; Test Conc(μM):ATP Conc(μM) 1:50
kinases [28] = biological target: kinases (Homo sapiens, UniProt O96017); conditions: CHEK2 (CHK2) FRET-Z-Lyte SP; Test Conc(μM):ATP Conc(μM) 1:75
[29] = bRAF Cascade FRET-Z-Lyte SP, Test Conc(μM):ATP Conc(μM) 1:100
[30] = bRAF FRET-Lantha SP, Test Conc(μM) 1
[31] = MAPK14 (p38a) Direct Z-Lyte SP, Test Conc(μM):ATP Conc(μM) 1:500
[32] = MAPK14 (p38a)Cascade Z-Lyte SP, Test Conc(μM):ATP Conc(μM) 1:100

Structure (SMILES) | Mean Inhib (%) (kinases [1]) | Mean Inhib (%) (kinases [3]; [29]) | Mean Inhib (%) (kinases [3]; [30]) | Mean Inhib (%) (kinases [4]) | Mean Inhib (%) (kinases [5]) | Mean Inhib (%) (kinases [6]) | Mean Inhib (%) (kinases [7]) | Mean Inhib (%) (kinases [8]) | Mean Inhib (%) (kinases [9]) | Mean Inhib (%) (kinases [10]) | Mean Inhib (%) (kinases [11]) | Mean Inhib (%) (kinases [12]) | Mean Inhib (%) (kinases [13]) | Mean Inhib (%) (kinases [14]; [31]) | Mean Inhib (%) (kinases [14]; [32]) | Mean Inhib (%) (kinases [15]) | Mean Inhib (%) (kinases [16]) | Mean Inhib (%) (kinases [17]) | Mean Inhib (%) (kinases [18]) | Mean Inhib (%) (kinases [19]) | other results
Cc1ccc(NC(=O)c2ccnc(N3CCOCC3)c2)cc1Nc1ccnc(N2CC(C)OC(C)C2)n1 (stereo not drawn) [compound 3] | 2.2% | 10.3% | 66.8% | −0.5% | −2.4% | 6.2% | 1.8% | 7.2% | 15.6% | 2.2% | 2.3% | 1.6% | −2.8% | 79.8% | 59.0% | 9.3% | 15.1% | −3.5% | 3.5% | 3.5% | Mean Inhib (%) (kinases [2]; Test Conc(μM):ATP Conc(μM) 1:300): 0.0%; Mean Inhib (%) (kinases [20]): −1.5%; Mean Inhib (%) (kinases [21]): 1.3%; Mean Inhib (%) (kinases [22]): −2.6%; Mean Inhib (%) (kinases [23]): 10.8%; Mean Inhib (%) (kinases [24]): 2.2%; Mean Inhib (%) (kinases [25]): 5.7%; Mean Inhib (%) (kinases [26]): 15.6%; Mean Inhib (%) (kinases [27]): 13.5%; Mean Inhib (%) (kinases [28]): 10.2%
Cc1cc(Oc2ccnc(Nc3ccc(S(N)(=O)=O)cc3)c2)c(-c2ccccn2)nc1C [compound 65] | 4.7% | 16.7% | 10.4% | 1.8% | −2.9% | 1.5% | −4.1% | 18.7% | 5.9% | 1.8% | 88.2% | 19.9% | 8.8% | 19.9% | 13.5% | 1.4% | 1.0% | −2.3% | 2.7% | 47.1% | Mean Inhib (%) (kinases [2]; Test Conc(μM):ATP Conc(μM) 0.25): 8.8%; Mean Inhib (%) (kinases [20]): 83.6%; Mean Inhib (%) (kinases [21]): 1.2%; Mean Inhib (%) (kinases [22]): 7.7%; Mean Inhib (%) (kinases [23]): 30.7%; Mean Inhib (%) (kinases [24]): −5.0%; Mean Inhib (%) (kinases [25]): −1.4%; Mean Inhib (%) (kinases [26]): 5.5%; Mean Inhib (%) (kinases [27]): 5.5%; Mean Inhib (%) (kinases [28]): 0.4%
